Measurements as given in patent publication US11584714B2 (priority 2018, dated 2023).
Structures can show the parent of a compound that is named as a salt.

What follows are molecules tested against human α-thrombin (Homo sapiens (Human), UniProt P00734) (assay: Enzymatic assay for thrombin (Boc-VPR-AMC substrate)). Conditions: read-out: Thrombin Ki.
Assay type: biochemical

Question: With N=C(N)c1ccc(CNC(=O)[C@@H]2CCN2C(=O)[C@H](N)C2CC2)cc1 [compound 1002, (S)-1-((R)-2-Amino-2-cyclopropylacetyl)-N-(4-carbamimidoylbenzyl)azetidine-2-carboxamide] as the molecule, how does the Ki read?
Answer: < 500 nM

Question: For N=C(N)c1ccc(CNC(=O)[C@@H]2CCN2C(=O)[C@H]2CCCN2)cc1 [compound 1003], which Ki is on record?
Answer: < 500 nM

These molecules were tested against MASP-2 (CCP1-CCP2-SP) (Homo sapiens (Human), UniProt O00187) (assay: biochemical). Conditions: not given.
Chain of MASP-2 (CCP1-CCP2-SP) (O00187 445-686): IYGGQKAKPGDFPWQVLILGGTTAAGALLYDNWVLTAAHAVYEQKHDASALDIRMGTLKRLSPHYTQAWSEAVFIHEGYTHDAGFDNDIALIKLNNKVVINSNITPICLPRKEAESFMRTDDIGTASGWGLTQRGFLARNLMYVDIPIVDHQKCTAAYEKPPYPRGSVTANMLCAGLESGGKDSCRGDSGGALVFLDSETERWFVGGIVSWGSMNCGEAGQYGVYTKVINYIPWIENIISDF
Assay type: biochemical

Question: Which Ki does the source give for N=C(N)c1ccc2[nH]c(-c3nc4ccccc4[nH]3)nc2c1 [compound 2009, 1H,1′H-[2,2′-bibenzo[d]imidazole-5-carboximidamidedihydrochloride] here?
Answer: > 25000 nM

Same assay, conditions: +Zn; read-out: MASP-2 Ki

Question: How did the Ki turn out when N=C(N)c1ccc2[nH]c(-c3nc4ccccc4[nH]3)nc2c1 [compound 2009, 1H,1′H-[2,2′-bibenzo[d]imidazole-5-carboximidamidedihydrochloride] was run?
Answer: < 500 nM

Same assay, conditions: MASP-2 inhibition versus thrombin

Question: With C[C@H](NC(=O)[C@H](N)CCc1ccccc1)C(=O)NCc1ccc(C(=N)N)cc1 [compound 1024] as the molecule, how does the “MASP-2 vs. thrombin selectivity” value read?
Answer: ** (5.0 to 25-fold)

Question: Which “MASP-2 vs. thrombin selectivity” value does the source give for C[C@H](NC(=O)[C@H](N)CCc1cccc(Cl)c1)C(=O)NCc1ccc(C(=N)N)cc1 [compound 1081] here?
Answer: ** (5.0 to 25-fold)

Question: For C[C@H](NC(=O)[C@H]1Cc2c([nH]c3ccccc23)CN1)C(=O)NCc1ccc(C(=N)N)cc1 [compound 1097], which “MASP-2 vs. thrombin selectivity” value is on record?
Answer: *** (25 to 100-fold)

Question: With C[C@H](NC(=O)[C@H](N)CCc1cc(Cl)cc(Cl)c1)C(=O)NCc1ccc(C(=N)N)cc1 [compound 1118] as the molecule, how does the “MASP-2 vs. thrombin selectivity” value read?
Answer: ** (5.0 to 25-fold)

Question: Which “MASP-2 vs. thrombin selectivity” value does the source give for C[C@H](NC(=O)[C@@H](CCc1ccccc1)NCc1ccc(C(=O)N2CCOCC2)cc1)C(=O)NCc1ccc(C(=N)N)cc1 [compound 1153] here?
Answer: **** (>100-fold)

Same assay, conditions: read-out: MASP-2 Ki

Question: C[C@H](NC(=O)[C@H](N)CCc1ccccc1)C(=O)NCc1cccc(Cl)c1 [compound 1021] was tested. Which Ki did it give?
Answer: < 10000 nM

Question: With C[C@H](NC(=O)[C@H]1C=C(c2ccccc2)CN1)C(=O)NCc1ccc(C(=N)N)cc1 [compound 1032] as the molecule, how does the Ki read?
Answer: < 500 nM

Question: How did the Ki turn out when N=C(N)c1ccc(CNC(=O)C(CF)NC(=O)[C@H](N)CCc2ccccc2)cc1 (stereo partly drawn) [compound 1050, (2R)-2-Amino-N-(1-((4-carbamimidoylbenzyl)amino)-3-fluoro-1-oxopropan-2-yl)-4-phenylbutanamide Dihydrochloride] was run?
Answer: < 500 nM

Question: Which Ki does the source give for N[C@H](CCc1ccccc1)C(=O)N1CCC[C@H]1C(=O)NCc1cc(Cl)ccc1O [compound 1079, (S)-1-((R)-2-Amino-4-phenylbutanoyl)-N-(5-chloro-2-hydroxybenzyl)pyrrolidine-2-carboxamide] here?
Answer: < 500 nM

Question: With C[C@H](NC(=O)[C@H](N)CCc1ccc(C(F)(F)F)cc1)C(=O)NCc1ccc(C(=N)N)cc1 [compound 1119, (R)-2-Amino-N—((S)-1-((4-carbamimidoylbenzyl)amino)-1-oxopropan-2-yl)-4-(4-(trifluoromethyl)phenyl)butanamide Dihydrochloride] as the molecule, how does the Ki read?
Answer: < 500 nM

Question: For C[C@H](NC(=O)[C@@H](CCc1ccccc1)NCc1ccc(N2CCNCC2)cc1)C(=O)NCc1ccc(C(=N)N)cc1 [compound 1148, (R)—N—((S)-1-((4-Carbamimidoylbenzyl)amino)-1-oxopropan-2-yl)-4-phenyl-2-((4-(piperazin-1-yl)benzyl)amino)butanamide], which Ki is on record?
Answer: < 500 nM

Question: For Cc1ccc(-c2c[nH]c(C(=O)N[C@@H](C)C(=O)NCc3ccc(C(=N)N)cc3)c2)cc1F [compound 1235, (S)—N-(1-((4-Carbamimidoylbenzyl)amino)-1-oxopropan-2-yl)-4-(3-fluoro-4-methylphenyl)-1H-pyrrole-2-carboxamide], which Ki is on record?
Answer: < 500 nM

Same assay, conditions: selectivity for MASP-2 inhibition versus thrombin

Question: With Cc1ccc(-c2c[nH]c(C(=O)N[C@@H](C)C(=O)NCc3ccc(C(=N)N)cc3)c2)cc1F [compound 1235, (S)—N-(1-((4-Carbamimidoylbenzyl)amino)-1-oxopropan-2-yl)-4-(3-fluoro-4-methylphenyl)-1H-pyrrole-2-carboxamide] as the molecule, how does the “MASP-2 vs. thrombin selectivity” value read?
Answer: *** (≥25 to <100-fold)

Question: For C[C@H](NC(=O)[C@H](N)CCc1ccccc1)C(=O)NCc1cc(Cl)ccc1C#N [compound 1313, Trifluoroacetate salt], which “MASP-2 vs. thrombin selectivity” value is on record?
Answer: * (≥1.0 to <5.0-fold)

Question: Which “MASP-2 vs. thrombin selectivity” value does the source give for COc1cc(C[C@@H]2CN[C@@H](C(=O)N[C@@H](C)C(=O)NCc3cc(Cl)ccc3-n3cnnn3)C2)cc(OC)c1 [compound 1419, (2R,4S)—N—((S)-1-((5-Chloro-2-(JH-tetrazol-1-yl)benzyl)amino)-1-oxopropan-2-yl)-4-(3,5-dimethoxybenzyl)pyrrolidine-2-carboxamide Trifluoroacetate salt] here?
Answer: * (≥1.0 to <5.0-fold)
